Assay results taken from publication PMC10766536 (The Journal of Antibiotics, 2023).

Columns and labels:
[1] = molecular target: CYP 2C19 (Homo sapiens, UniProt P33261)
[2] = tested on: CYP 2B6
[3] = mouse, s9
[4] = molecular target: CYP 1A2 (Homo sapiens, UniProt P05177); conditions: read-out: CYP inhibition IC50; CYP 1A2, substrate Phenacetin; ND = Not Detected
[5] = molecular target: MDCK-MDR1: overexpression of Pgp (Homo sapiens, UniProt P08183); assay: MDCK-MDR1 permeability and efflux
[6] = tested on: S. aureus MRSA strain N315; assay: S. aureus IV advanced disseminated infection mouse model, kidney burden; assay type: in vivo, Balb/c mice
Experimental: (§1) S. aureus MSRA strain NRS384 or N315 (BEI Resources), where indicated, was grown overnight in TSB and sub-cultured to mid-logarithmic phase. […] From 1 to 3 days post-infection, indicated mice were injected subcutaneously with 110 mg/kg vancomycin twice daily where indicated. […] Mice were monitored for weight loss and body conditioning score throughout the infection. At 4 days post-infection, mice were euthanized, and the S. aureus kidney burden was quantified by tissue homogenization followed by enumeration of cfu through serial dilution in PBS and plating onto TSA plates. Data points represent the kidney burden from individual mice tested. Statistical analysis was conducted with GraphPad Prism 9, Version 9.4.1.

[7] = tested on: S. aureus MRSA strain NRS384; assay: as above; assay type: in vivo, Balb/c mice; conditions: 0.01–0.25 mg/kg sc single dose in combination with vancomycin, NRS384
Experimental: as §1

Sequence of CYP 1A2 (P05177 whole entry): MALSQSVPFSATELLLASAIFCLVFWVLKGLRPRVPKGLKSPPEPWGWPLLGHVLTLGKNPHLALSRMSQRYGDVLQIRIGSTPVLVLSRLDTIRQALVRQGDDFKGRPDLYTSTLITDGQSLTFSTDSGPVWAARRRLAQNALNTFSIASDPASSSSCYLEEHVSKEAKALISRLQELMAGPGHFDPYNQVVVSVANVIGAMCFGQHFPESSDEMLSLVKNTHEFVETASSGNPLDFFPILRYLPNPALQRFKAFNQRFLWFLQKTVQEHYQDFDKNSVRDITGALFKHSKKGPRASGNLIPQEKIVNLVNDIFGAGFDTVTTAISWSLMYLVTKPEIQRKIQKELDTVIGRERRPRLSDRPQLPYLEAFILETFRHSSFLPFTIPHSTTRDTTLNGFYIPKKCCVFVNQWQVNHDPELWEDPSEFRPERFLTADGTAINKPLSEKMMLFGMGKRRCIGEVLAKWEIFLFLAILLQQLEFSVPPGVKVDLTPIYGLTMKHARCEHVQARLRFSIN
Sequence of MDCK-MDR1: overexpression of Pgp (P08183 whole entry): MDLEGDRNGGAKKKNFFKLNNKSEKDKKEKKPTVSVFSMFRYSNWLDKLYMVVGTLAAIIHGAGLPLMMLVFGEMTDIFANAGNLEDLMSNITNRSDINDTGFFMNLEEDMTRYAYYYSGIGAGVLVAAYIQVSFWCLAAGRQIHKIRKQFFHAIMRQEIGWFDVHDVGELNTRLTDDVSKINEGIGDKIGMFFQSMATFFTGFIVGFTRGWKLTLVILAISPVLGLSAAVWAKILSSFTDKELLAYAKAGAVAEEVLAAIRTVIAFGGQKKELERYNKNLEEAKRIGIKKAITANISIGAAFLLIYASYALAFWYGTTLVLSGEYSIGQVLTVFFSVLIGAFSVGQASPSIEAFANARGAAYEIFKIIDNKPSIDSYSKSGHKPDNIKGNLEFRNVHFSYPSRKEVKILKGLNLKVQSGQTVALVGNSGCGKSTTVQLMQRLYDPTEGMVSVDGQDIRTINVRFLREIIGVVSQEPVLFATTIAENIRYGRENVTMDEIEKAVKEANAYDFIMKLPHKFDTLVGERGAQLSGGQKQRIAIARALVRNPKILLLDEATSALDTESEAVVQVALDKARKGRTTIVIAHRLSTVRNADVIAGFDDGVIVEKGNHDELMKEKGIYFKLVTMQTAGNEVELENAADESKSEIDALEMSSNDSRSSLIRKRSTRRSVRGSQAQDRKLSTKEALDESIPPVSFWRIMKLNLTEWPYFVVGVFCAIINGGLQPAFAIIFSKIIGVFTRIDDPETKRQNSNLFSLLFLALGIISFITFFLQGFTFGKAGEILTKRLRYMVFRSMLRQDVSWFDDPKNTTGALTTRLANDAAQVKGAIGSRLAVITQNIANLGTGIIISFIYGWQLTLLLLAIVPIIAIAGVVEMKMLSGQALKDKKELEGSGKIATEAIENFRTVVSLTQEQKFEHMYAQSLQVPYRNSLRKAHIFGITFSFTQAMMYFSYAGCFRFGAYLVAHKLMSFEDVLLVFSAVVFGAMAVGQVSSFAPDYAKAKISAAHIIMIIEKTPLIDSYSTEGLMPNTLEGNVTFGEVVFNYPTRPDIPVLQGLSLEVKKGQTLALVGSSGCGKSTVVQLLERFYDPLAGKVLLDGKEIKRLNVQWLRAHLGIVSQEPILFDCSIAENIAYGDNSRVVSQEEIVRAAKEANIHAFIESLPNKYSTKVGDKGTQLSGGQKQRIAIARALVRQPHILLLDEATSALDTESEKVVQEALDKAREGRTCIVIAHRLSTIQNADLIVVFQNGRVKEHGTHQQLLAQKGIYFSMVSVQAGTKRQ
Sequence of CYP 2C19 (P33261 whole entry): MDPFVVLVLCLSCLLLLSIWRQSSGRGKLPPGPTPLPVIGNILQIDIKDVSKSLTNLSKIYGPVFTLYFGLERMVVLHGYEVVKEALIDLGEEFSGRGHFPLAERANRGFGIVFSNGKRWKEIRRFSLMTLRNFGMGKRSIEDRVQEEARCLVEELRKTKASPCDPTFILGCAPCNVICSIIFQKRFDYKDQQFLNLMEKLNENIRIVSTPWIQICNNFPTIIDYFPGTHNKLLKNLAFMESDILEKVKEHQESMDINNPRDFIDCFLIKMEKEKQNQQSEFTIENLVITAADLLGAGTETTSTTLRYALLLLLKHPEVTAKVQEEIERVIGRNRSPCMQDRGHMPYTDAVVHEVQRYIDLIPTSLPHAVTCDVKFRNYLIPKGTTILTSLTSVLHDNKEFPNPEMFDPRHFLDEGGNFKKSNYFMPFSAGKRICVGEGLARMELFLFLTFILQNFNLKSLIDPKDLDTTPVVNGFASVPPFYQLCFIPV

For `COC1C=COC2(C)Oc3c(C)c(O)c4c(=O)c(c5oc6cc(OCCN(C)C)ccc6nc-5c4c3C2=O)NC(=O)C(C)=CC=CC(C)C(O)C(C)C(O)C(C)C(OC(C)=O)C1C` (centres unmarked) [Compound 4], the IC50 [1] was 9.99 µM, the “Fold Induction (Enzyme Activity)” value [2] was 0.0131 and the T1/2 [3] was over 2 h. The IC50 [4] was 10.9 µM, the “Mean (B-A/A-B) Efflux Ratio” value [5] was 13.7 and the “bacterial load (kidney)” value ([6]; 0.01 mg/kg in combination with vancomycin) was “below the limit of detection”. For the same compound, the “S. aureus kidney burden” value ([6]; 0.01–0.75 mg/kg in combination with vancomycin) was “to or near the limit of detection” and the “S. aureus kidney burden” value [7] was “further reduced kidney burden”.
